Non-standard residues stand in square brackets, D forms with d. Residues, ends and D or L forms follow the SMILES beside them. *: point of attachment. Thz = O=C(O)[C@@H]1CSCN1; Cbz = O=C(OCc1ccccc1)*
Legend:
[1] = system: SCOP-induced amnestic rat; experiment: Step-down type passive avoidance test in scopolamine-induced amnestic rats; format: in vivo, rat (Wister strain); conditions: for Acquisition trial: Step-down latency / Acquisition trial: Number of step-down / Acquisition trial: Total time for the test: scopolamine after learning; for Retention trial: Step-down latency after 24 hours / Retention trial: Step-down latency after 48 hours: scopolamine 3.0 mg/kg i.p. after learning
Procedure: (2) A step-down type passive avoidance test
This test was carried out by using the undermentioned apparatus (A) and test animal (B) according to the undermentioned testing method (C).
(A) Test chamber for passive avoidance response of rats
A test chamber of 200(w)×200(1) mm in area was made of transparent acrylic resin plates for observation of the inside and was provided on one side thereof with an electrically insulated platform of 150(w)×200(1)×40(h) in size and on the bottom with a grid floor made of stainless steel which was equipped with a foot-shock generator/scrumbler (HASG-101/S, Medical Agent, Inc.) capable of sending electric current to the grid floor for giving a test animal electric foot shock.
5-Weeks-old male rats of Wister strain weighing 100-145 g (Japan Clea Co., Ltd.) were used as test animals.
The passive avoidance test consists of two steps; an acquisition trial and a retention trial. […] As control, only saline was administered intraperitoneally to a group of the rats. In the acquisition trial, the rat was placed on the platform in the test chamber and, when the rat stepped down on the floor, the electric current of 4 mA was immediately sent to the grid continuously until the rat went up on the platform. At the time the rat having gone up on the platform stayed there for more than 20 seconds, the rat was regarded to have learned the situation and taken out of the test chamber. Repeating this test with another rat under the same condition, the rats learned the situation were collected as passing the test for the acquisition trial. A total time of measurement in the acquisition trial was limited to 300 seconds as maximum, and the time elapsing until the rat stepped down to the grid floor (step-down latency, SDL), the total time elapsing until the rat learned the situation and the times of step-down were measured. […] Immediately after the acquisition trial, scopolamine hydrobromide (SCOP) dissolved in saline was administered intraperitoneally in a dose of 3.0 mg/kg of body weight to the rat to prepare a SCOP-induced amnestic rat. As control, only saline was administered intraperitoneally to a group of the rats. The retention trial was carried out by putting the rat on the platform of the test chamber after the lapse of 24 and 48 hours from the acquisition trial, and the time elapsing until the rat went down to the floor (SDL) was measured. A statistical treatment of the data obtained was made according to the Student's t-test.

prolyl endopeptidase = target: T1, prolyl endopeptidase (Homo sapiens, UniProt P48147); experiment: Inhibitory activity to prolyl endopeptidase (IC50); format: biochemical
T1 sequence (P48147 1-710): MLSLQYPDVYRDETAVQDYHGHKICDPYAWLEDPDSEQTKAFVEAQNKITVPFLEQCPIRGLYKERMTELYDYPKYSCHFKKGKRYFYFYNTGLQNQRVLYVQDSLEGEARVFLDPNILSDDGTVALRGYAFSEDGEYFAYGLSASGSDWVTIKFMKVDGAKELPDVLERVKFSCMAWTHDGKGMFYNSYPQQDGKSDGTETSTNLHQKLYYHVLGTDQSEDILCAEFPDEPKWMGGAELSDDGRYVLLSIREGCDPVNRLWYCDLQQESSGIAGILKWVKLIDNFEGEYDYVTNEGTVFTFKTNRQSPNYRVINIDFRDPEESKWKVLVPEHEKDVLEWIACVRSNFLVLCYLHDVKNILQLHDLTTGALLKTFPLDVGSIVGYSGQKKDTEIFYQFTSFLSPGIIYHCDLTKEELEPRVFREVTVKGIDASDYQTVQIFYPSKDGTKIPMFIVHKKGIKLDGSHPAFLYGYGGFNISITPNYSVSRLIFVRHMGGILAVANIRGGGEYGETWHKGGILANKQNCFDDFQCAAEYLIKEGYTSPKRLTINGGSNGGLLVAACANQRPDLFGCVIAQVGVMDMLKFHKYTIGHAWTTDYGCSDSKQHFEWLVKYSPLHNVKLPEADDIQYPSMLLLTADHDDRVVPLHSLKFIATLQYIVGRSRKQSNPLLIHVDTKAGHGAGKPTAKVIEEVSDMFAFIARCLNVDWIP

[2] = 2.2 mg/kg i.p. one hour before acquisition trial

| SMILES | Acquisition trial: Step-down latency [1, 2] [s] | Retention trial: Step-down latency after 24 hours ([1]; 2.2 mg/kg i.p.) [s] | Retention trial: Step-down latency after 48 hours ([1]; 2.2 mg/kg i.p.) [s] | Acquisition trial: Number of step-down ([1]; 2.2 mg/kg i.p.) [times] | Acquisition trial: Total time for the test ([1]; 2.2 mg/kg i.p.) [s] | Retention trial: Step-down latency after 24 hours ([1]; 11.0 mg/kg i.p.) [s] | Retention trial: Step-down latency after 48 hours ([1]; 11.0 mg/kg i.p.) [s] | Acquisition trial: Number of step-down ([1]; 11.0 mg/kg i.p.) [times] | Acquisition trial: Step-down latency ([1]; 11.0 mg/kg i.p.) [s] | Acquisition trial: Total time for the test ([1]; 11.0 mg/kg i.p.) [s] | Inhibitory activity in vitro (in words) (prolyl endopeptidase) |
| --- | --- | --- | --- | --- | --- | --- | --- | --- | --- | --- | --- |
| O=C[C@@H]1CSCN1C(=O)[C@@H]1CSCN1C(=O)OCc1ccccc1 [Example 4, N-benzyloxycarbonyl-L-thioprolyl-L-thioprolinal] (Cbz-[Thz]-[Thz]-aldehyde) | 7.6 | 170.9 | 176.5 | 2.0 | 52.1 | 245.7 | 177.0 | 2.2 | 8.9 | 57.1 |  |
| O=C([C@@H]1CSCN1C(=O)OCc1ccccc1)N1CSC[C@H]1CO [Example 3, N-benzyloxycarbonyl-L-thioprolyl-L-thioprolinol] | 9.8 | 238.2 | 174.0 | 2.4 | 67.5 |  |  |  |  |  | not effective in vitro |
